Laboratory results taken from the supplement of paper PMC10307832.

Columns and labels:
Assay in all cases: relative viability (nuclei count vs DMSO), 5 days (fraction); higher = more cells survive
Apatinib + Pemetrexed = compound: N#CC1(c2ccc(NC(=O)c3cccnc3NCc3ccncc3)cc2)CCCC1 [Apatinib] + Nc1nc2[nH]cc(CCc3ccc(C(=O)N[C@@H](CCC(=O)O)C(=O)O)cc3)c2c(=O)[nH]1 [Pemetrexed] (partner 0.2 µM)
In short: (§1)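 The day after seeding in 1536-well plates, lung cancer cell lines were treated by pin tool with a single drug, or with a fixed anchor-drug dose together with five library-drug doses (not always all listed) in √10 steps. After 5 days, a combined fix-and-stain solution (final 0.05% Triton X-100, 1% formaldehyde, 1 ug/ml Hoechst) was added. Nuclei counted on 4× images gave relative viability as treated counts over vehicle counts, reported as the median of duplicate plates.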

Metformin + OSI-027 = compound: CN(C)C(=N)NC(=N)N [Metformin] + COc1cccc2cc(-c3nc([C@H]4CC[C@H](C(=O)O)CC4)n4ncnc(N)c34)[nH]c12 [OSI-027] (partner 0.5 µM)
In short: as §1

Apatinib = compound: N#CC1(c2ccc(NC(=O)c3cccnc3NCc3ccncc3)cc2)CCCC1 [Apatinib]
In short: (§2)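 Lung cancer cell lines in 1536-well plates were exposed by pinning to five library-drug doses (not always all listed) √10 apart, following an overnight hold at 37 °C. MetaXpress counted Hoechst-stained nuclei from 4× images taken after 5 days without medium change. Viability is the median ratio of treated-well to vehicle-well nuclei across plates. Plates required control CV below 25% and at least one doubling.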

Metformin = compound: CN(C)C(=N)NC(=N)N [Metformin]
In short: as §2

| Cell Line | relative viability (Apatinib + Pemetrexed; first compound 0.08 µM) | relative viability (Apatinib + Pemetrexed; first compound 0.253 µM) | relative viability (Apatinib + Pemetrexed; first compound 0.8 µM) | relative viability (Apatinib + Pemetrexed; first compound 2.53 µM) | relative viability (Apatinib + Pemetrexed; first compound 8 µM) | relative viability (Metformin + OSI-027; first compound 10 µM) | relative viability (Metformin + OSI-027; first compound 31.62 µM) | relative viability (Metformin + OSI-027; first compound 100 µM) | relative viability (Metformin + OSI-027; first compound 316.23 µM) | relative viability (Metformin + OSI-027; first compound 1000 µM) | relative viability (Apatinib; 0.08 µM) | relative viability (Apatinib; 0.253 µM) | relative viability (Apatinib; 0.8 µM) | relative viability (Apatinib; 2.53 µM) | relative viability (Apatinib; 8 µM) | relative viability (Metformin; 10 µM) | relative viability (Metformin; 31.62 µM) | relative viability (Metformin; 100 µM) | relative viability (Metformin; 316.23 µM) | relative viability (Metformin; 1000 µM) |
| --- | --- | --- | --- | --- | --- | --- | --- | --- | --- | --- | --- | --- | --- | --- | --- | --- | --- | --- | --- | --- |
| HCC-44 | 0.677 | 0.626 | 0.616 | 0.63 | 0.521 | 1.14 | 0.921 | 0.696 | 0.632 | 0.491 | 0.959 | 0.941 | 0.95 | 0.913 | 0.922 | 0.938 | 0.997 | 1.02 | 0.909 | 0.956 |
| EPLC-272H | 0.275 | 0.333 | 0.359 | 0.322 | 0.199 | 0.294 | 0.269 | 0.262 | 0.293 | 0.335 | 1.01 | 1.02 | 0.914 | 0.774 | 0.691 | 0.9 | 1.16 | 0.923 | 0.935 | 1.09 |
| EMC-BAC-2 | 0.452 | 0.465 | 0.422 | 0.406 | 0.401 | 0.419 | 0.397 | 0.365 | 0.399 | 0.356 | 0.772 | 0.994 | 0.957 | 0.8 | 0.811 | 0.944 | 0.99 | 0.788 | 0.94 | 0.968 |
| NCI-H1395 | 0.913 | 0.802 | 0.881 | 0.685 | 0.635 | 0.74 | 0.899 | 0.669 | 0.693 | 0.75 | 0.914 | 1.11 | 0.964 | 0.685 | 0.844 | 1.06 | 1.3 | 0.96 | 0.956 | 0.521 |
| NCI-H1355 | 1.09 | 1.01 | 1 | 0.898 | 0.918 | 0.434 | 0.373 | 0.396 | 0.416 | 0.406 | 0.993 | 0.962 | 0.956 | 0.9 | 0.885 | 0.838 | 0.953 | 0.963 | 0.992 | 1.05 |
| RERF-LC-KJ | 0.493 | 0.466 | 0.381 | 0.451 | 0.327 | 0.521 | 0.503 | 0.492 | 0.394 | 0.415 | 1.03 | 0.978 | 0.933 | 0.847 | 0.802 | 0.817 | 0.976 | 0.888 | 0.786 | 0.926 |
| NCI-H661 | 0.933 | 0.853 | 0.911 | 0.917 | 0.892 | 0.6 | 0.617 | 0.487 | 0.613 | 0.642 | 0.973 | 0.908 | 0.973 | 0.929 | 0.948 | 0.801 | 0.964 | 0.911 | 0.875 | 0.893 |
| SK-LU-1 | 1.09 | 0.995 | 0.918 | 0.544 | 0.32 | 0.32 | 0.389 | 0.354 | 0.318 | 0.299 | 1.09 | 1.08 | 0.992 | 0.949 | 0.931 | 0.997 | 0.976 | 0.967 | 0.901 | 1.01 |
